Test systems include XF 498 CNS; DMS 114 small cell lung; M19-MEL melanoma; DLD-1 colon.
Common to all, as to test: NCI anticancer screen, dose series, 48 h

Structures are written as SMILES.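 How tested: cells in 96-well plates exposed to compound for 48 hours at five concentrations. TGI marks complete inhibition of growth.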

As for `CC(C)C(=O)CC(c1ccc(Br)cc1)N1N=C(C(C)C)CC1c1ccc(Br)cc1` (configuration not stated), the TGI with XF 498 CNS was 59 µM; with DMS 114 small cell lung, over 100 µM; with M19-MEL melanoma it was over 100 µM.

As for `OC1CCSc2ccccc21` (configuration not stated), the TGI in the experiment on DLD-1 colon, in the experiment on XF 498 CNS, in the experiment on DMS 114 small cell lung and with M19-MEL melanoma was over 100 µM throughout.

These data come from PubChem BioAssay (NCI).
